Test results from patent publication US10221163B2 (priority 2015, dated 2019).
Where two headings read alike, the source gives them in different places.

Columns and labels:
[1] = system: Pseudomonas aeruginosa efflux− (MB9799), IMP-1; assay type: cell-based; conditions: C, D serine β-lactamase inhibitor closely related to relebactam; for P. aeruginosa expressing IMP-1, efflux − (MB9799) MITC95: concentration restoring susceptibility to imipenem at 2 μg/mL in the presence of a class A
Outline: (§1)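 P. aeruginosa PAO1-derived IMP-1 strains, efflux+ MB9798 and efflux− MB9799, tested by standard microbroth MIC with imipenem and/or ceftazidime fixed, usually at CLSI breakpoint, plus fixed class A/C β-lactamase inhibitor against AmpC. Inhibitor titrated; concentration restoring susceptibility recorded; MB9798/MB9799 fold difference indicates efflux.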

[2] = system: Klebsiella pneumoniae expressing VIM-1 (IHMA599644); assay type: cell-based; conditions: for Klebsiella pneumoniae expressing VIM-1 (IHMA599644) MITC95: with imipenem 1 μg/ml, 95% inhibition of bacterial growth; for Klebsiella pneumoniae MITC95: VIM-1 strain IHMA599644, with imipenem 1 μg/ml, 95% inhibition of growth
Outline: (§2)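 Clinical strains grown overnight on blood agar at 35°C, colonies suspended in saline, diluted 1:100 into 1.1×CAMHB. Test compound titrated with imipenem at 1 μg/ml; incubated 22–24 h at 35°C, growth read by absorbance.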

[3] = system: Escherichia coli expressing NDM-1 (CLB30005, CLB30016); assay type: cell-based; conditions: with imipenem 1 μg/ml; for Escherichia coli expressing NDM-1 (CLB30016) MITC95: 95% inhibition of bacterial growth; for Escherichia coli MITC95: NDM-1 strain, 95% inhibition of growth
Outline: as §2

[4] = system: Serratia marcescens expressing IMP-1 (CL5741); assay type: cell-based; conditions: for Serratia marcescens expressing IMP-1 (CL5741) MITC95: with imipenem 1 μg/ml, 95% inhibition of bacterial growth; for Serratia marcescens MITC95: IMP-1 strain CL5741, with imipenem 1 μg/ml, 95% inhibition of growth
Outline: as §2

[5] = system: Pseudomonas aeruginosa MB9798 vs MB9799
Outline: as §1

IMP-1 = IMP-1 (Serratia marcescens, UniProt P52699); test: biochemical; assay type: biochemical; conditions: fluorescence assay, CCF2-FA substrate, 2 pM enzyme, 2 hours at 25° C.; read-out: IMP-1 IC50
Outline: (§3)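 Semi-log dose-response curves, fitted with a 4-parameter model, gave IC50s. The underlying signal was CCF2-FA fluorescence following 2 hours at 25° C with enzyme, substrate and inhibitor combined.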

NDM-1 = NDM-1 (Klebsiella pneumoniae, UniProt C7C422); test: biochemical; assay type: biochemical; conditions: fluorescence assay, CCF2-FA substrate, 1 pM enzyme, 2 hours at 25° C.; read-out: NDM-1 IC50
Outline: as §3

[6] = system: Pseudomonas aeruginosa efflux+ (MB9798), IMP-1; assay type: cell-based; parameters: Concentration of metallo-β-lactamase inhibitor which restores susceptibility of efflux + (MB9798) strain to imipenem: unit not given here; conditions: C, D serine β-lactamase inhibitor closely related to relebactam; for P. aeruginosa expressing IMP-1, efflux + (MB9798) MITC95: concentration restoring susceptibility to imipenem at 2 μg/mL in the presence of a class A
Outline: as §1

VIM-1 = VIM-1 (Pseudomonas aeruginosa (strain ATCC 15692 / DSM 22644 / CIP 104116 / JCM 14847 / LMG 12228 / 1C / PRS 101 / PAO1), UniProt A0A0F7KYQ8); test: biochemical; conditions: CCF2-FA substrate, 30 pM enzyme, 2 hours at 25° C.
Outline: as §3

[7] = ratio MITC95 PA_9798/MITC95 PA_9799
[8] = fluorescence assay, read-out: VIM-1 IC50

Chain of IMP-1 (P52699 whole entry, looked up, species assumed): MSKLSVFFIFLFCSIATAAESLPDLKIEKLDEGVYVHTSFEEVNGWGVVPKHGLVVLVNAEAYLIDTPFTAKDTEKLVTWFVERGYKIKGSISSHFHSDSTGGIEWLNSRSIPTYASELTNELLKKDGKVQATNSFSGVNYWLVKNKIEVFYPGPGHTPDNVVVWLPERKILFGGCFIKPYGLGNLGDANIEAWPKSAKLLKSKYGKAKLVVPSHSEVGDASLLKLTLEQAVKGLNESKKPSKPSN
Chain of NDM-1 (C7C422 whole entry, looked up, species assumed): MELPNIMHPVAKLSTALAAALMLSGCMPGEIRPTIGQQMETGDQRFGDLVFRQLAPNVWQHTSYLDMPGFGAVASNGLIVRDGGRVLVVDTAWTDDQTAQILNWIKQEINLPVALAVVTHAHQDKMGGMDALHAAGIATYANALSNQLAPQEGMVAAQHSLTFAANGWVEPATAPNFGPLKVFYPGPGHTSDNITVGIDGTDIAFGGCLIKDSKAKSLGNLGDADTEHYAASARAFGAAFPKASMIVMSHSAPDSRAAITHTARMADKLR

| SMILES | P. aeruginosa expressing IMP-1, efflux − (MB9799) MITC95 [1] | Klebsiella pneumoniae expressing VIM-1 (IHMA599644) MITC95 [2] | Escherichia coli expressing NDM-1 (CLB30016) MITC95 [3] | Serratia marcescens expressing IMP-1 (CL5741) MITC95 [4] | Efflux ratio [5, 7] | IC50 (IMP-1) | IC50 (NDM-1) | P. aeruginosa expressing IMP-1, efflux + (MB9798) MITC95 [6] | IC50 (VIM-1; [8]) | Klebsiella pneumoniae MITC95 [2] | Escherichia coli MITC95 [3] | Serratia marcescens MITC95 [4] | IC50 (VIM-1; VIM-1 IC50, fluorescence assay) | Concentration of metallo-β-lactamase inhibitor which restores susceptibility of efflux − (MB9799) strain to imipenem ([1]; efflux− MB9799, imipenem at 2 μg/mL, in the presence of a class A) | Efflux ratio ([5]; fold difference between efflux+ (MB9798) and efflux− (MB9799) strains, imipenem at 2 μg/mL) | Concentration of metallo-β-lactamase inhibitor which restores susceptibility of efflux + (MB9798) strain to imipenem ([6]; efflux+ MB9798, imipenem at 2 μg/mL, in the presence of a class A) |
| --- | --- | --- | --- | --- | --- | --- | --- | --- | --- | --- | --- | --- | --- | --- | --- | --- |
| Nc1nc2c(-c3ccc(S(=O)(=O)N4CC5(CCNC5)C4)c(S(N)(=O)=O)c3-c3nnn[nH]3)cccc2s1 [Example 48, 3-(2-amino-1,3-benzothiazol-4-yl)-6-(2,6-diazaspiro[3.4]oct-2-ylsulfonyl)-2-(1H-tetrazol-5-yl)benzenesulfonamide] | 1.563 µM | 3.125 µM | 6.25 µM | 3.125 µM | 1.00 | 0.951 nM | 0.258 nM | 1.563 µM | 0.49 nM |  |  |  |  |  |  |  |
| Nc1nc2c(-c3ccc(S(=O)(=O)NC4CCC5OC4CC5N)c(S(N)(=O)=O)c3-c3nnn[nH]3)cccc2s1.O=C(O)C(F)(F)F (stereo not drawn) [Example 95, 2-(4-(2-aminobenzo[d]thiazol-4-yl)-2-sulfamoyl-3-(1H-tetrazol-5-yl)phenylsulfonamido)-8-oxabicyclo[3.2.1]octan-6-aminium 2,2,2-trifluoroacetate] | 1.563 µM | 3.125 µM | 1.563 µM | 3.125 µM | 1.00 | 0.193 nM | 0.027 nM | 1.563 µM | 0.173 nM |  |  |  |  |  |  |  |
| NCCNS(=O)(=O)c1ccc(-c2cccc3[nH]c(CCN)nc23)c(-c2nn[nH]n2)c1S(N)(=O)=O [Example 337, N1-(2-aminoethyl)-4-(2-(2-aminoethyl)-1H-benzo[d]imidazol-4-yl)-3-(2H-tetrazol-5-yl)benzene-1,2-disulfonamide] | 0.3906 µM |  |  |  | 2.00 | 2.23 nM | 0.208 nM | 0.7813 µM | 0.2 nM | 0.7813 µM | 0.7813 µM | 0.7813 µM |  |  |  |  |
| NCc1nc2c(-c3ccc(S(=O)(=O)N[C@H](CN)CO)c(S(N)(=O)=O)c3-c3nn[nH]n3)cccc2s1 [Example 363, (R)—N1-(1-amino-3-hydroxypropan-2-yl)-4-(2-(aminomethyl)benzo[d]thiazol-4-yl)-3-(2H-tetrazol-5-yl)benzene-1,2-disulfonamide] | 0.7813 µM |  |  |  | 4.00 | 3.67 nM | 0.649 nM | 3.125 µM |  | 3.125 µM | 3.125 µM | 1.563 µM | 0.591 nM |  |  |  |
| Nc1nc2c(-c3ccc(S(=O)(=O)NC4C5CNCC54)c(S(N)(=O)=O)c3-c3nnn[nH]3)cccc2s1.O=C(O)C(F)(F)F (stereo not drawn) [Example 111, 6-(4-(2-aminobenzo[d]thiazol-4-yl)-2-sulfamoyl-3-(1H-tetrazol-5-yl)phenylsulfonamido)-3-azabicyclo[3.1.0]hexan-3-ium 2,2,2-trifluoroacetate] | 1.563 µM | 3.125 µM | 1.563 µM | 1.563 µM | 0.50 | 0.429 nM | 0.0746 nM | 0.7813 µM | 0.298 nM |  |  |  |  |  |  |  |
| NC[C@@H](CO)NS(=O)(=O)c1ccc(-c2ccnc(N)c2)c(-c2nn[nH]n2)c1S(N)(=O)=O [Example 380, (S)—N1-(1-amino-3-hydroxypropan-2-yl)-4-(2-aminopyridin-4-yl)-3-(2H -tetrazol-5-yl)benzene-1,2-disulfonamide] | 0.7813 µM |  |  |  | 1.00 | 0.544 nM | 0.178 nM | 0.7813 µM |  | 1.563 µM | 0.4883 µM | 0.7813 µM | 0.179 nM |  |  |  |
| NS(=O)(=O)c1c(S(=O)(=O)N[C@@H]2CCNC2)ccc(-c2cccc3nc(O)[nH]c23)c1-c1nnn[nH]1 [Example 130, (R)-4-(2-hydroxy-1H-benzo[d]imidazol-7-yl)-N1-(pyrrolidin-3-yl)-3-(1H-tetrazol-5-yl)benzene-1,2-disulfonamide] | 1.563 µM | 3.125 µM | 1.563 µM | 1.563 µM | 0.50 | 0.684 nM | 0.0529 nM | 0.7813 µM | 0.151 nM |  |  |  |  |  |  |  |
| Nc1nc2c(-c3ccc(S(=O)(=O)NC4(CO)CCNC4)c(S(N)(=O)=O)c3-c3nnn[nH]3)cccc2s1 (stereo not drawn) [Example 83, 4-(2-amino-1,3-benzothiazol-4-yl)-N1-[3-(hydroxymethyl)pyrrolidin-3-yl]-3-(1H-tetrazol-5-yl)benzene-1,2-disulfonamide] | 1.563 µM | 3.125 µM | 3.125 µM | 3.125 µM | 0.50 | 0.261 nM | 0.0483 nM | 0.7813 µM | 0.208 nM |  |  |  |  |  |  |  |
| Nc1nc2c(-c3ccc(S(=O)(=O)NC4CCc5nccn5C4)c(S(N)(=O)=O)c3-c3nnn[nH]3)cccc2s1 (stereo not drawn) [Example 35, 4-(2-amino-1,3-benzothiazol-4-yl)-N1-(5,6,7,8-tetrahydroimidazo[1,2-a]pyridin-6-yl)-3-(1H-tetrazol-5-yl)benzene-1,2-disulfonamide] | 3.125 µM | 12.5 µM | 12.5 µM | 3.125 µM | 2.00 | 0.349 nM | 0.0508 nM | 6.25 µM | 0.256 nM |  |  |  |  |  |  |  |
| NCCNCc1sc(N)nc1-c1cccc(-c2ccc(S(=O)(=O)N[C@@H]3CCNC3)c(S(N)(=O)=O)c2-c2nnn[nH]2)c1 [Example 433] |  |  |  |  |  | 1.33 nM | 0.51 nM |  | 0.404 nM | 1.563 µM | 0.7813 µM | 1.563 µM |  | 0.7813 | 2.00 | 1.563 |
